Results: ChEMBL document CHEMBL1145498, “A systematic interaction map of validated kinase inhibitors with Ser/Thr kinases” (Proc Natl Acad Sci U S A, 2007)

Biological target: Ribosomal protein S6 kinase alpha-3 (Homo sapiens) (UniProt P51812)

Compared with `C/C(O)=C(\C#N)C(=O)Nc1cc(Br)ccc1Br`, `O=c1c(O)c(-c2ccc(O)c(O)c2)oc2cc(O)cc(O)c12` [QUERCETIN] is higher in ΔTm: 0.2 °C for the first, 6.6 °C for the second.

`COc1cc(/C=C/C(=O)CC(=O)/C=C/c2ccc(O)c(OC)c2)ccc1O` [CURCUMIN] was tested, and the ΔTm was 3 °C.

Biological target: Mitogen-activated protein kinase 11 (Homo sapiens, UniProt Q15759)

First: C/C(O)=C(\C#N)C(=O)Nc1cc(Br)ccc1Br
Second: O=c1c(O)c(-c2ccc(O)c(O)c2)oc2cc(O)cc(O)c12 [QUERCETIN]
The ΔTm of the first is lower: 0.3 °C for the first, 2.2 °C for the second.

In the case of `COc1cc(/C=C/C(=O)CC(=O)/C=C/c2ccc(O)c(OC)c2)ccc1O` [CURCUMIN], the ΔTm was 3.7 °C.

Biological target: Calcium/calmodulin-dependent protein kinase type 1D (Homo sapiens) (UniProt Q8IU85)
Sequence (Q8IU85 whole entry, looked up): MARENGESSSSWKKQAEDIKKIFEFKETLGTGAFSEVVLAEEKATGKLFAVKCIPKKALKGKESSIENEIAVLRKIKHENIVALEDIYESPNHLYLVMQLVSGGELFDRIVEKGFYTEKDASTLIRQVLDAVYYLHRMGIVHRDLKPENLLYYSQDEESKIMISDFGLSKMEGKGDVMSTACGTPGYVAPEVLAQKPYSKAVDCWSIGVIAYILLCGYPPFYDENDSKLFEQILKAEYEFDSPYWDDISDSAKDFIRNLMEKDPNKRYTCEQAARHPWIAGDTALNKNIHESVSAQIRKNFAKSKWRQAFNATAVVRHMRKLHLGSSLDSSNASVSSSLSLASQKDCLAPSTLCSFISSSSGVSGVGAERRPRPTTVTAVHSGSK

First: C/C(O)=C(\C#N)C(=O)Nc1cc(Br)ccc1Br
Second: O=c1c(O)c(-c2ccc(O)c(O)c2)oc2cc(O)cc(O)c12 [QUERCETIN]
The ΔTm of the first is lower: 0.3 °C for the first, 2.9 °C for the second.

`COc1cc(/C=C/C(=O)CC(=O)/C=C/c2ccc(O)c(OC)c2)ccc1O` [CURCUMIN] showed a ΔTm of 2 °C.

Biological target: Glycogen synthase kinase-3 beta (Homo sapiens, UniProt P49841)
Sequence (P49841 whole entry, looked up): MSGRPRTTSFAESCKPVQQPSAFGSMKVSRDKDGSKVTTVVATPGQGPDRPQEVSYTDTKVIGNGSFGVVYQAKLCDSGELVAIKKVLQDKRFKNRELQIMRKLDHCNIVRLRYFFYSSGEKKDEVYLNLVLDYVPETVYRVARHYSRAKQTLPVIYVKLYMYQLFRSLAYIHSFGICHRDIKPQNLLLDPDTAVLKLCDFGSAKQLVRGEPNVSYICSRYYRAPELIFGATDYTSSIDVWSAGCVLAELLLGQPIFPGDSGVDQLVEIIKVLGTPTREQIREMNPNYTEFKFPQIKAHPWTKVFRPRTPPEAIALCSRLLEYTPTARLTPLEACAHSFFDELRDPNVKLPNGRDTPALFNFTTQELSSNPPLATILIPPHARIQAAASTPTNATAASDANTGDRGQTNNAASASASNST

First: C/C(O)=C(\C#N)C(=O)Nc1cc(Br)ccc1Br
Second: O=c1c(O)c(-c2ccc(O)c(O)c2)oc2cc(O)cc(O)c12 [QUERCETIN]
The ΔTm of the first is lower: 1.8 °C for the first, 7.8 °C for the second.

With `COc1cc(/C=C/C(=O)CC(=O)/C=C/c2ccc(O)c(OC)c2)ccc1O` [CURCUMIN] the ΔTm was 3.4 °C.

Biological target: Dual specificity protein kinase CLK1 (Homo sapiens) (UniProt P49759)
Sequence (P49759 whole entry, looked up): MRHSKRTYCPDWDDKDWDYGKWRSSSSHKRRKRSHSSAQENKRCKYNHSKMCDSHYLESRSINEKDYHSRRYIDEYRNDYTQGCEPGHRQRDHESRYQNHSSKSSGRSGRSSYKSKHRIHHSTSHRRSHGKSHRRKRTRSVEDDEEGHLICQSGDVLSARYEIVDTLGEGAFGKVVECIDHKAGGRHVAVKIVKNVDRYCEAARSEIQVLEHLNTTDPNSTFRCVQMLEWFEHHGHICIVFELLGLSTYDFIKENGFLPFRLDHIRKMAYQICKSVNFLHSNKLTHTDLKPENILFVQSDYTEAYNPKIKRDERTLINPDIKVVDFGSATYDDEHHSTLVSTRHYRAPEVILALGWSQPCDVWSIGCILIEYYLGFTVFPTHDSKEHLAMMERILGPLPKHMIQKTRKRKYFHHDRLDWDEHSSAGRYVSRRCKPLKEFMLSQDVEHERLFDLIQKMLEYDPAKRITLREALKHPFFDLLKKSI

Compared with `C/C(O)=C(\C#N)C(=O)Nc1cc(Br)ccc1Br`, `O=c1c(O)c(-c2ccc(O)c(O)c2)oc2cc(O)cc(O)c12` [QUERCETIN] is higher in ΔTm: 0.5 °C for the first, 7.7 °C for the second.

`COc1cc(/C=C/C(=O)CC(=O)/C=C/c2ccc(O)c(OC)c2)ccc1O` [CURCUMIN] gave a ΔTm of 7.9 °C.

Biological target: Serine/threonine-protein kinase 25 (Homo sapiens) (UniProt O00506)
Sequence (O00506 whole entry, looked up): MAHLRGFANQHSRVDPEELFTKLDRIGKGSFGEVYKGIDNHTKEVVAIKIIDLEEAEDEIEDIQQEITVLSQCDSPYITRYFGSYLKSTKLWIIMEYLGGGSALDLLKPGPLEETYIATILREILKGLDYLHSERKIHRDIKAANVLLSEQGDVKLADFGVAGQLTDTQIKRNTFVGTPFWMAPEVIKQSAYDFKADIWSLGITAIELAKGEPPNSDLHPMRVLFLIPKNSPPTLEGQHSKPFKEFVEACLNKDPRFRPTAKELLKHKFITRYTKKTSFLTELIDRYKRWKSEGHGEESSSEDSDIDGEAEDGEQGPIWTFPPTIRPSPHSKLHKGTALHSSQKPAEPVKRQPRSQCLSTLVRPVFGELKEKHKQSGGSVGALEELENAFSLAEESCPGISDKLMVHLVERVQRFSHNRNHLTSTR

First: C/C(O)=C(\C#N)C(=O)Nc1cc(Br)ccc1Br
Second: O=c1c(O)c(-c2ccc(O)c(O)c2)oc2cc(O)cc(O)c12 [QUERCETIN]
The ΔTm of the first is lower: -0.1 °C for the first, 5.3 °C for the second.

`COc1cc(/C=C/C(=O)CC(=O)/C=C/c2ccc(O)c(OC)c2)ccc1O` [CURCUMIN] showed a ΔTm of 4.4 °C.

Biological target: T1, Serine/threonine-protein kinase PLK4 (Homo sapiens) (UniProt O00444)
T1 sequence (whole entry): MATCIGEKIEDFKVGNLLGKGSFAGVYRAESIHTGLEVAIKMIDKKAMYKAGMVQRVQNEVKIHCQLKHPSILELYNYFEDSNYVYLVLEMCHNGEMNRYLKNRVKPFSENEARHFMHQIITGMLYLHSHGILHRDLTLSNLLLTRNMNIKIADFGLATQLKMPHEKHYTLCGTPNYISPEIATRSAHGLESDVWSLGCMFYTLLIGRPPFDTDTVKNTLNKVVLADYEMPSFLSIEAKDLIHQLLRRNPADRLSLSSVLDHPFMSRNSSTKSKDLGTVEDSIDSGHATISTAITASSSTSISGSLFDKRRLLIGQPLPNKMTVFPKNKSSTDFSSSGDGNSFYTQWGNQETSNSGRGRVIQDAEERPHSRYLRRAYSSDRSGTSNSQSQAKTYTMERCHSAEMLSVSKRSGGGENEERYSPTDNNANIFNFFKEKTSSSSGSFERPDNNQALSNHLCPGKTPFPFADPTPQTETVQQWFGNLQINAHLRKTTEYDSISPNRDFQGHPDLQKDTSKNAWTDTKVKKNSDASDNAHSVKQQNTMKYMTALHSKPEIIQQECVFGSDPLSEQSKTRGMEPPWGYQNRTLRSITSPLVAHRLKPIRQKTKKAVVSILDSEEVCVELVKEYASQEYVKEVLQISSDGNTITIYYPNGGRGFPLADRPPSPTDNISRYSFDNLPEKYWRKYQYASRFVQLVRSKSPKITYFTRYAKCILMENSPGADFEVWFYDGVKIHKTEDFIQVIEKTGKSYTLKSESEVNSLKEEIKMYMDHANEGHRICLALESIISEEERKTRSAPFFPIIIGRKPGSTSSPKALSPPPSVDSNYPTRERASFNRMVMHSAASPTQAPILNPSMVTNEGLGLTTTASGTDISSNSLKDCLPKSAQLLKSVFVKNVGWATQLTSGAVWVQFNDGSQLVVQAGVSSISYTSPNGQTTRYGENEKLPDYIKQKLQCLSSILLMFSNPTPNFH

Going from `C/C(O)=C(\C#N)C(=O)Nc1cc(Br)ccc1Br` to `O=c1c(O)c(-c2ccc(O)c(O)c2)oc2cc(O)cc(O)c12` [QUERCETIN], the ΔTm rises from 1.1 °C to 7.4 °C.

For `COc1cc(/C=C/C(=O)CC(=O)/C=C/c2ccc(O)c(OC)c2)ccc1O` [CURCUMIN], the ΔTm was 3.3 °C.

Biological target: Cyclin-dependent kinase 6 (Homo sapiens) (UniProt Q00534)

First: C/C(O)=C(\C#N)C(=O)Nc1cc(Br)ccc1Br
Second: O=c1c(O)c(-c2ccc(O)c(O)c2)oc2cc(O)cc(O)c12 [QUERCETIN]
The ΔTm of the first is lower: 0.2 °C for the first, 1.9 °C for the second.

`COc1cc(/C=C/C(=O)CC(=O)/C=C/c2ccc(O)c(OC)c2)ccc1O` [CURCUMIN] showed a ΔTm of 2.1 °C.

Biological target: Serine/threonine-protein kinase PAK 5 (Homo sapiens) (UniProt Q9P286)
Sequence (Q9P286 whole entry, looked up): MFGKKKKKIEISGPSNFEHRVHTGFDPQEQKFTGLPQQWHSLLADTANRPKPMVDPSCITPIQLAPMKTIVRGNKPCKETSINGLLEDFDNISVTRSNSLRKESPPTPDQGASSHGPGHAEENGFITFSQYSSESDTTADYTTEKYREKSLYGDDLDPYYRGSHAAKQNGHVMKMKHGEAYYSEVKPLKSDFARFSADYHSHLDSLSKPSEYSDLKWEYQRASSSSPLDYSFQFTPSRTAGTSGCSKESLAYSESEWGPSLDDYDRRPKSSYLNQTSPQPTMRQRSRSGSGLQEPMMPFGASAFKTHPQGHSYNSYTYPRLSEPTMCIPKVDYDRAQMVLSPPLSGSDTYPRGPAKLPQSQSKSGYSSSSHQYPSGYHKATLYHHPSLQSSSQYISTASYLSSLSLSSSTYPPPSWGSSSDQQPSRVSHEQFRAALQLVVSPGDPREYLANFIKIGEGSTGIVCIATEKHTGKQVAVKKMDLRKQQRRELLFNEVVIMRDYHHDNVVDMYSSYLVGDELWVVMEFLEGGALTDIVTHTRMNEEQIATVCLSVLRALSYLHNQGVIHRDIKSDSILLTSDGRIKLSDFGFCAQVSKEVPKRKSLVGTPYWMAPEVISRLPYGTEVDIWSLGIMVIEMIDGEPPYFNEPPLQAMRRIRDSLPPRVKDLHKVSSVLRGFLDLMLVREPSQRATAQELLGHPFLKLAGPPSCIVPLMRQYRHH

Compared with `C/C(O)=C(\C#N)C(=O)Nc1cc(Br)ccc1Br`, `O=c1c(O)c(-c2ccc(O)c(O)c2)oc2cc(O)cc(O)c12` [QUERCETIN] is higher in ΔTm: 0.4 °C for the first, 0.5 °C for the second.

Molecule `COc1cc(/C=C/C(=O)CC(=O)/C=C/c2ccc(O)c(OC)c2)ccc1O` [CURCUMIN] has a ΔTm of 1.3 °C.

Biological target: T2, 3-phosphoinositide-dependent protein kinase 1 (Homo sapiens) (UniProt O15530)
T2 sequence (whole entry): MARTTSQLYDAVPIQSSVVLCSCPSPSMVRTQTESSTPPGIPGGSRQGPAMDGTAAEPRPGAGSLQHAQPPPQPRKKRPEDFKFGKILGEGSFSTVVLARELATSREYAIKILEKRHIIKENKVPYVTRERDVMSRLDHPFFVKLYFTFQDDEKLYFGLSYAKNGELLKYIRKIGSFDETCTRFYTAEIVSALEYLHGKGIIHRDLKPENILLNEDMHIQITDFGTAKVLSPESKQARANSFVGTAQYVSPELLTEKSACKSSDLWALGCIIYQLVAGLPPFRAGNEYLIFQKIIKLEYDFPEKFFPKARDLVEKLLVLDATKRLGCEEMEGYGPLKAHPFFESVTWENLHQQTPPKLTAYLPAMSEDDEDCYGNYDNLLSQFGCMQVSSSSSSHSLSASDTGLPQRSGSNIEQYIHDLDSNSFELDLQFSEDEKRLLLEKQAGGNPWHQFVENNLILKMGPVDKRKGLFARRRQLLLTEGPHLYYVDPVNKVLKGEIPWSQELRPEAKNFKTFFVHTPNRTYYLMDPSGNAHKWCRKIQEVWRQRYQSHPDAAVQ

Compared with `C/C(O)=C(\C#N)C(=O)Nc1cc(Br)ccc1Br`, `O=c1c(O)c(-c2ccc(O)c(O)c2)oc2cc(O)cc(O)c12` [QUERCETIN] is higher in ΔTm: -3.7 °C for the first, 1.1 °C for the second.

Work on `COc1cc(/C=C/C(=O)CC(=O)/C=C/c2ccc(O)c(OC)c2)ccc1O` [CURCUMIN] yielded a ΔTm of 0.2 °C.

Biological target: Serine/threonine-protein kinase 26 (Homo sapiens) (UniProt Q9P289)
Sequence (Q9P289 2-416 limits assumed): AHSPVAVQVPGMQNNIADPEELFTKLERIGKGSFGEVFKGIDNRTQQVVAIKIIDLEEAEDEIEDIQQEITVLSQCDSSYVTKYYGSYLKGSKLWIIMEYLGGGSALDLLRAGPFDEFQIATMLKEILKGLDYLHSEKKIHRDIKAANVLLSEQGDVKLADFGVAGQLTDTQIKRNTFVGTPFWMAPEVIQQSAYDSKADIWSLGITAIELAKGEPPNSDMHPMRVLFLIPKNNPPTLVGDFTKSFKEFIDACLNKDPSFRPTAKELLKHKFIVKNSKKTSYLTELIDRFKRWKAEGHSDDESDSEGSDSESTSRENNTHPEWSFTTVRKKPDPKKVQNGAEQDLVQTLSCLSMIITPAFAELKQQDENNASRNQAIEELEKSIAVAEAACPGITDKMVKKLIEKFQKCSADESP

First: C/C(O)=C(\C#N)C(=O)Nc1cc(Br)ccc1Br
Second: O=c1c(O)c(-c2ccc(O)c(O)c2)oc2cc(O)cc(O)c12 [QUERCETIN]
The ΔTm of the first is lower: -0.1 °C for the first, 8.1 °C for the second.

`COc1cc(/C=C/C(=O)CC(=O)/C=C/c2ccc(O)c(OC)c2)ccc1O` [CURCUMIN] gave a ΔTm of 2.9 °C.

Biological target: Cyclin-dependent kinase-like 1 (Homo sapiens) (UniProt Q00532)
Sequence (Q00532 whole entry): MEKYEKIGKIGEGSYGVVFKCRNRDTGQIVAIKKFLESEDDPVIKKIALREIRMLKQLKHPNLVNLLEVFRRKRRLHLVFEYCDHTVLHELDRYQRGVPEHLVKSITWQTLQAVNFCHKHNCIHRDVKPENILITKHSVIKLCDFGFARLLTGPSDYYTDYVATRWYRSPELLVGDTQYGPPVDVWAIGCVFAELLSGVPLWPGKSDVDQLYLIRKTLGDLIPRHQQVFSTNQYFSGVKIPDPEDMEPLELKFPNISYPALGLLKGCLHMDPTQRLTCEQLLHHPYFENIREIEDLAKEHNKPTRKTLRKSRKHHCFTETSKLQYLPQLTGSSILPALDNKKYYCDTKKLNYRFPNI

Going from `C/C(O)=C(\C#N)C(=O)Nc1cc(Br)ccc1Br` to `O=c1c(O)c(-c2ccc(O)c(O)c2)oc2cc(O)cc(O)c12` [QUERCETIN], the ΔTm rises from 0.8 °C to 1.6 °C.

`COc1cc(/C=C/C(=O)CC(=O)/C=C/c2ccc(O)c(OC)c2)ccc1O` [CURCUMIN] showed a ΔTm of 3.9 °C.

Biological target: STE20-like serine/threonine-protein kinase (Homo sapiens) (UniProt Q9H2G2)
Sequence (Q9H2G2 whole entry, looked up): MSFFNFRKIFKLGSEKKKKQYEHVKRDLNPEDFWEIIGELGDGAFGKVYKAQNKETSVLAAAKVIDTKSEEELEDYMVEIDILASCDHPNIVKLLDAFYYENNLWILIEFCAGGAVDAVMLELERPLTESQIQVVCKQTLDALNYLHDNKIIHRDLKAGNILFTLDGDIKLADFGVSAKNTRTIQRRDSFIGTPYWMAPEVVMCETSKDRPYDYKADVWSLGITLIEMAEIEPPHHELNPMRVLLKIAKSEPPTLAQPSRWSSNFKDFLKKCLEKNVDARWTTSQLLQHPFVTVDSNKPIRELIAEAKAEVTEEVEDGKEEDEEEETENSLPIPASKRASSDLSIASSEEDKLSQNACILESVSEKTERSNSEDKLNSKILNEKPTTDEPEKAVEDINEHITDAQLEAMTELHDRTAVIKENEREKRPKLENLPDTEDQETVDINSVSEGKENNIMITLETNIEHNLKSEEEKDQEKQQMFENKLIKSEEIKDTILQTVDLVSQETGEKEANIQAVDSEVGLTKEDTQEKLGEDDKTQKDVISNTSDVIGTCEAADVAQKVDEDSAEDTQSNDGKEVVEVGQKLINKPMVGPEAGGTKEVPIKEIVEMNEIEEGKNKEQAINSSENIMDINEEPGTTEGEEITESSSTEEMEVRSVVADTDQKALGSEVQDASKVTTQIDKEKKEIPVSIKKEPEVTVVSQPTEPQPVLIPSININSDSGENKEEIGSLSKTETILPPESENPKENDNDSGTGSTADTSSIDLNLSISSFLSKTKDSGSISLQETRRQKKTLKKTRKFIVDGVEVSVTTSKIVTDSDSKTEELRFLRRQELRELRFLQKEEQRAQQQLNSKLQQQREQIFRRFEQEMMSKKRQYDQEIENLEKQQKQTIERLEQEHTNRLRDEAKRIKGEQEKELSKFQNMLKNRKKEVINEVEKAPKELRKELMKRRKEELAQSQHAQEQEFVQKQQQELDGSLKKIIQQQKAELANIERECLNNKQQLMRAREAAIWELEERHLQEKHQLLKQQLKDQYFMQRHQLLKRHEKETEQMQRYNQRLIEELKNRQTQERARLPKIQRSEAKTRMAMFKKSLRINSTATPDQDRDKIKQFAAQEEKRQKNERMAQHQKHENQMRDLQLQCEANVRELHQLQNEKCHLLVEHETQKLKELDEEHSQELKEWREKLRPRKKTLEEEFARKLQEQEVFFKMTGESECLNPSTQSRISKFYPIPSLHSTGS

Compared with `C/C(O)=C(\C#N)C(=O)Nc1cc(Br)ccc1Br`, `O=c1c(O)c(-c2ccc(O)c(O)c2)oc2cc(O)cc(O)c12` [QUERCETIN] is higher in ΔTm: 0.4 °C for the first, 5.7 °C for the second.

`COc1cc(/C=C/C(=O)CC(=O)/C=C/c2ccc(O)c(OC)c2)ccc1O` [CURCUMIN] was tested, and the ΔTm was 3.2 °C.

Biological target: T3, Serine/threonine-protein kinase Nek2 (Homo sapiens) (UniProt P51955)
T3 sequence (whole entry): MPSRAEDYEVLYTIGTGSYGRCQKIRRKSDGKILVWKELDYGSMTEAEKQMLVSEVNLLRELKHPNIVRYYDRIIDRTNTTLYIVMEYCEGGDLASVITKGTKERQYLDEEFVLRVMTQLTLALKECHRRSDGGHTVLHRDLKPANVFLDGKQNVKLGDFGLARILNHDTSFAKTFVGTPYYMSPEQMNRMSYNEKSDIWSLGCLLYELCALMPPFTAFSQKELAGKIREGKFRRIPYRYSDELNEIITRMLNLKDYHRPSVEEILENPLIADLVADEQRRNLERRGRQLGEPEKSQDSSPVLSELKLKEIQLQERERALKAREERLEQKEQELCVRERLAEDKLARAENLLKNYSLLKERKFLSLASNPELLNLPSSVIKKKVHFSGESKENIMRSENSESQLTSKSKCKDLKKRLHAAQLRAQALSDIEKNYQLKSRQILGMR

Compared with `C/C(O)=C(\C#N)C(=O)Nc1cc(Br)ccc1Br`, `O=c1c(O)c(-c2ccc(O)c(O)c2)oc2cc(O)cc(O)c12` [QUERCETIN] is higher in ΔTm: 0.9 °C for the first, 3.4 °C for the second.

Molecule `COc1cc(/C=C/C(=O)CC(=O)/C=C/c2ccc(O)c(OC)c2)ccc1O` [CURCUMIN] has a ΔTm of 1.1 °C.

Biological target: Serine/threonine-protein kinase Chk2 (Homo sapiens, UniProt O96017)

Going from `C/C(O)=C(\C#N)C(=O)Nc1cc(Br)ccc1Br` to `O=c1c(O)c(-c2ccc(O)c(O)c2)oc2cc(O)cc(O)c12` [QUERCETIN], the ΔTm rises from 0.5 °C to 4.8 °C.

`COc1cc(/C=C/C(=O)CC(=O)/C=C/c2ccc(O)c(OC)c2)ccc1O` [CURCUMIN] gave a ΔTm of 5.4 °C.

Biological target: Serine/threonine-protein kinase pim-1 (Homo sapiens) (UniProt P11309)
Sequence (P11309 whole entry, looked up): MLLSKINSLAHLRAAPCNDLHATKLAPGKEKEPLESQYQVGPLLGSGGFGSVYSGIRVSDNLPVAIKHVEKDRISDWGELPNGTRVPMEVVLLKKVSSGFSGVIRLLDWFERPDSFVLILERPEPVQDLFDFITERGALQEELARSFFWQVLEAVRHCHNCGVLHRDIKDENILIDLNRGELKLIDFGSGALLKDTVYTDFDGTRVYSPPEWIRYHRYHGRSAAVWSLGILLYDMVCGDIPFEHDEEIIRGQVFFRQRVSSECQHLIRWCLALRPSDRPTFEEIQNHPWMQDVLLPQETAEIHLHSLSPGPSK

First: C/C(O)=C(\C#N)C(=O)Nc1cc(Br)ccc1Br
Second: O=c1c(O)c(-c2ccc(O)c(O)c2)oc2cc(O)cc(O)c12 [QUERCETIN]
The ΔTm of the first is lower: 1.4 °C for the first, 8.1 °C for the second.

`COc1cc(/C=C/C(=O)CC(=O)/C=C/c2ccc(O)c(OC)c2)ccc1O` [CURCUMIN] showed a ΔTm of 2.5 °C.
